Laboratory results taken from patent US20210316003A1 (Immunomedics, Inc., priority 2020, published 2021).
Several values for one entry are separate records, joined by “and”; a condition that tells them apart may be missing. Identical values can stand only once.

Tests used:
[1] = test system: patients with metastatic TNBC; test: Phase I/II trial (NCT01631552), metastatic TNBC: efficacy by RECIST 1.1; type: in vivo, human
Text: Patients with relapsed/refractory TNBC who had previously failed at at least one prior line of therapy were enrolled in a single-arm, multicenter trial (Bardia et al., 2019, N Engl J Med 380:741-51). The present study reports on 108 patients who had failed at least two prior lines of therapy (median three prior therapies) (Bardia et al., 2019, N Engl J Med 380:741-51). […] For severe treatment-related adverse events, a 25% dose reduction was allowed after the first occurrence, 50% after the second and discontinuation after the third. Of the 108 patients, 107 were female and 1 was male, with a median age of 55. Prior therapies included treatment with taxanes (98%), anthracyclines (86%), platinum agents (69%), gemcitabine (55%), eribulin (45%) and checkpoint inhibitors (17%). Tumor staging was performed by computed tomography (CT) and MRI at baseline, followed up at 8 week intervals from the start of treatment until disease progression.

[2] = Serum pharmacokinetics (ELISA for IgG and intact conjugate, HPLC for SN-38); type: in vivo, human; details: patients
Method: Two ELISA methods were used to measure the clearance of the IgG (capture with anti-hRS7 idiotype antibody) and the intact conjugate (capture with anti-SN-38 IgG/probe with anti-hRS7 idiotype antibody). SN-38 was measured by HPLC.

patients with mSCLC = test: Phase I/II trial (NCT01631552), mSCLC: safety and tolerability; details: N = 53
Method: Doses of 8 or 10 mg/kg were given on days 1 and 8 of a 21-day cycle, with contingencies to delay (maximum of 2 weeks). Toxicities were managed by supportive hematopoietic growth-factor therapy for blood cell reduction, dose delays and/or modification as specified in the protocol (e.g., 25% of prior dose), or by standard medical practice. Treatment was continued until disease progression, initiation of alternative anticancer therapy, unacceptable toxicity, or withdrawal of consent.
Safety evaluations were conducted during scheduled visits or more frequently if warranted.
Statistical Analyses—The data included in the analyses were derived from patients enrolled from November 2013 to June 2016, with follow-up through Jan. […] The frequency and severity of adverse events (AEs) were defined by MedDRA Preferred Term and System Organ Class (SOC) version 10, with severity assessed by NCI-CTCAE v4.03.

[3] = test system: patients with metastatic urothelial cancer (mUC); test: Phase I/II trial IMMU-132-01 (NCT01631552), mUC cohort: efficacy by RECIST 1.1; type: in vivo, human; details: for ORR (objective response rate): 10 mg/kg days 1 and 8 of 21-day cycles
Method: Endpoints included safety, investigator-evaluated objective response rate (ORR per RECIST 1.1), clinical benefit rate, duration of response (DOR), progression-free survival (PFS), and overall survival (OS). Sequencing analysis of differentially mutated and expressed genes and pathways was performed in subsets of tumors from responders and non-responders.
All patients had metastatic disease measurable by Response Evaluation Criteria in Solid Tumors, version 1.1 (RECIST 1.1) at the time of enrollment. Patients were required to have an Eastern Cooperative Oncology Group (ECOG) performance status of 0 to 1 with expected survival ≥6 months and adequate hepatic, renal, and hematologic function. […] Patients with stable brain metastases could be included only if they were ≥2 weeks beyond high-dose steroid treatment. Pre-selection of patients based on tumor Trop-2 expression was not required.
Hematopoietic growth factors or blood transfusions were allowed at the investigator's discretion, but not prior to the first dose. Other supportive care (antiemetics, anti-diarrheal medications, or bone-stabilizing agents) were allowed as medically needed.
Staging CT/magnetic resonance imaging (MRI) scans were obtained at baseline and at 8-week intervals from the start of treatment until progression requiring treatment discontinuation. […] Subsequent scans were done at 8-week intervals after the confirmatory scan. Patients with evidence of clinical benefit were permitted to receive treatment following disease progression. Response was assessed by investigators using RECIST, version 1.1. Efficacy endpoints included objective response rate (ORR), time to response, duration of response (DOR), clinical benefit rate (CBR; defined as CR, PR, or stable disease ≥6 months), progression-free survival (PFS), and overall survival (OS).
The data cut-off date for this analysis was Sep. 1, 2018. ORR and CBR were calculated with 95% confidence intervals estimated by the Clopper-Pearson method (Clopper & Pearson, 1934, Biometrika 26:404-13). PFS, OS, and time-to-event endpoints were analyzed by the Kaplan-Meier method, with medians and corresponding 95% confidence intervals determined by the Brookmeyer and Crowley method with log-log transformation. Descriptive statistics were used to characterize AEs. Fischer's exact test was applied to a matrix of pathway-associated gene counts of mutated and wild type phenotypes between responders and non-responders to identify pathways enriched in either of the two response groups. P-values for single sample GSEA (ssGSEA) enrichment score differences between the responder and non-responder patient groups were obtained from the Mann-Whitney statistical test.

[4] = 10 mg/kg, N = 45, listed as Sacituzumab Govitecan

sacituzumab govitecan
Response rate among patients who had failed previous checkpoint inhibitor therapy [1]: 44%
Complete responses (CR) ([1]; 10 mg/kg, N = 108): 2.8%
Median overall survival ([1]; 10 mg/kg, N = 108): 13.0 months
Median progression-free survival ([1]; 10 mg/kg, N = 108): 5.5 months
Estimated probability that a patient would exhibit a response at 6 months ([1]; 36 responders): 59.7%
Estimated probability that a patient would exhibit a response at 12 months ([1]; 36 responders): 27.0%
Median duration of response ([1]; 36 responders): 7.7 months
Median time to response ([1]; 36 responders): 2.0 months
Patients with long-term responses of more than 12 months ([1]; at data cutoff): 6
Response rate (CR+PR) ([1]; ≥2 prior lines, 10 mg/kg days 1 and 8 of 21 day cycle, N = 108): 33.3%
Clearance of intact conjugate compared with the IgG ([2]; ELISA): cleared more quickly than the IgG
Time for the conjugate to clear from the serum ([2]; serum): ≤ 3 days
SN-38 in the serum bound to the IgG (non-glucuronidated form) ([2]; serum, HPLC (Unbound and TOTAL)): > 95%
Treatment-related deaths (patients with mSCLC): No treatment-related deaths were observed
ORR (objective response rate) ([3]; N = 45, 10 mg/kg): 31% and 31.1%
ORR (objective response rate) ([3]; N = 45, listed as Sacituzumab Govitecan, 10 mg/kg): 31.1%
ORR, prior CPI- and platinum-treated patients ([3]; 10 mg/kg, 4 of 15, 10 mg/kg): 27% and 26.7%
ORR, prior CPI-treated patients ([3]; 10 mg/kg, 4 of 17, 10 mg/kg): 24% and 23.5%
ORR, patients with liver metastases ([3]; 10 mg/kg, 5 of 15, 10 mg/kg): 33% and 33.3%
ORR, patients with any visceral involvement ([3]; 10 mg/kg, 9 of 33): 27.3%
Clinical benefit rate, No. of patients ([3]; 10 mg/kg, N = 45): 21
Median OS ([3]; 10 mg/kg, N = 45): 16.3 months
Median PFS ([3]; 10 mg/kg, N = 45): 7.3 months
ORR, No. of patients ([3]; 10 mg/kg, N = 45): 14
CR, % of patients ([3]; 10 mg/kg, N = 45, 10 mg/kg): (4.4) %
PD, % of patients ([3]; 10 mg/kg, N = 45, 10 mg/kg): (22.2) %
PR, % of patients ([3]; 10 mg/kg, N = 45, 10 mg/kg): (26.7) %
CR, % of patients [3, 4]: 4.4%
PD, % of patients [3, 4]: 22.2%
PR, % of patients [3, 4]: 26.7%
Median DOR (duration of response) ([3]; 10 mg/kg, responders n = 14): 12.9 months
Time to onset of response, median ([3]; 10 mg/kg, responders n = 14): 1.9 months
Time to onset of response, range ([3]; 10 mg/kg, responders n = 14): 1.7-7.4 months
Ongoing response of patients still on treatment at time of analysis ([3]; 3 patients, FIG. 1B): > 17 months and > 19 months and > 29 months
Responders with response duration of more than 12 months ([3]; 7 of 14 responders): 50%
Patients with a reduction of target lesions ([3]; 31 of 40 patients with post-baseline assessment): 77.5%
